The results in this text go back to patent US20240199649A1 (Biosplice Therapeutics, Inc., priority 2022, published 2024).

pIC50: −log10 of the molar value.

For this test, the target named is recombinant DYRK1A kinase (Homo sapiens (Human), UniProt Q13627). The test can be described thus: DYRK1A kinase assay (Ser/Thr 18 peptide Z-lyte FRET assay). Type of test: biochemical. The conditions noted are these: DYRK1A 0.25 μg/mL, ATP 15 μM, Ser/Thr peptide 18 4 μM; one hour at room temperature; 11-point dose-response, duplicate. In a few lines:
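Z-lyte FRET assay on Ser/Thr 18 peptide, kinase activity read as coumarin/fluorescein emission ratio; compounds incubated 1 h at room temperature, then development reagent 1 h, in duplicate. Phosphorylated and unphosphorylated peptide served as controls; IC50 by non-linear regression of dose-response curves.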
As to `CC(=O)N1CC[C@H](Nc2nc(N)c3c(-c4ccc5nc(C)n(CC(F)F)c5n4)ccn3n2)[C@H](F)C1` [Compound 715, 1-((3R,4S)-4-((4-Amino-5-(3-(2,2-difluoroethyl)-2-methyl-3H-imidazo[4,5-b]pyridin-5-yl)pyrrolo[2,1-f][1,2,4]triazin-2-yl)amino)-3-fluoropiperidin-1-yl)ethan-1-one], the pIC50 is 9.40.

For the compound `CNc1nc(N[C@@H]2CCN(C(C)=O)CC2(F)F)nn2ccc(-c3ccc4nnn(CC(F)F)c4n3)c12` [Compound 1029, (R)-1-(4-((5-(3-(2,2-Difluoroethyl)-3H-[1,2,3]triazolo[4,5-b]pyridin-5-yl)-4-(methylamino)pyrrolo[2,1-f][1,2,4]triazin-2-yl)amino)-3,3-difluoropiperidin-1-yl)ethan-1-one], the negative logarithm of the IC50 (pIC50) is 8.89.

Turning to `CNc1nc(N[C@@H]2CCN(C)CC2(F)F)nn2ccc(-c3ccc4ncn(CCF)c4n3)c12` [Compound 1004, (R)—N^2-(3,3-Difluoro-1-methylpiperidin-4-yl)-5-(3-(2-fluoroethyl)-3H-imidazo[4,5-b]pyridin-5-yl)-N^4-methylpyrrolo[2,1-f][1,2,4]triazine-2,4-diamine], the negative-log IC50 (pIC50) was 8.96.

For the compound `CNc1nc(N[C@H]2CCN(C(C)=O)C[C@H]2F)nn2ccc(-c3ccc4nnn(CC(F)(F)F)c4n3)c12` [Compound 1032, 1-((3R,4S)-3-Fluoro-4-((4-(methylamino)-5-(3-(2,2,2-trifluoroethyl)-3H-[1,2,3]triazolo[4,5-b]pyridin-5-yl)pyrrolo[2,1-f][1,2,4]triazin-2-yl)amino)piperidin-1-yl)ethan-1-one], the pIC50 is 8.55.

In the case of `CNc1nc(N[C@H]2CCN(C3COC3)CC2(F)F)nn2ccc(-c3ccc4nc(C)n(CC(F)F)c4n3)c12` [Compound 217, (S)—N^2-(3,3-Difluoro-1-(oxetan-3-yl)piperidin-4-yl)-5-(3-(2,2-difluoroethyl)-2-methyl-3H-imidazo[4,5-b]pyridin-5-yl)-N^4-methylpyrrolo[2,1-f][1,2,4]triazine-2,4-diamine], the pIC50 is 8.77.

As for `CC(=O)N1CC[C@H](Nc2nc(N)c3c(-c4ccc5nc(C)n(CCF)c5n4)ccn3n2)[C@H](F)C1` [Compound 996, 1-((3R,4S)-4-((4-Amino-5-(3-(2-fluoroethyl)-2-methyl-3H-imidazo[4,5-b]pyridin-5-yl)pyrrolo[2,1-f][1,2,4]triazin-2-yl)amino)-3-fluoropiperidin-1-yl)ethan-1-one], the negative-log IC50 (pIC50) was 8.74.

As to `CNc1nc(N[C@@H]2CCN(C3COC3)CC2(F)F)nn2ccc(-c3ccc4ncn(CCF)c4n3)c12` [Compound 1005, (R)—N^2-(3,3-Difluoro-1-(oxetan-3-yl)piperidin-4-yl)-5-(3-(2-fluoroethyl)-3H-imidazo[4,5-b]pyridin-5-yl)-N^4-methylpyrrolo[2,1-f][1,2,4]triazine-2,4-diamine], the pIC50 is 9.05.

`CNc1nc(NC2CCN(C(C)=O)CC2)nn2ccc(-c3ccc4nc(C)n(CC(F)F)c4n3)c12` [Compound 202, 1-(4-((5-(3-(2,2-Difluoroethyl)-2-methyl-3H-imidazo[4,5-b]pyridin-5-yl)-4-(methylamino)pyrrolo[2,1-f][1,2,4]triazin-2-yl)amino)piperidin-1-yl)ethan-1-one]: the pIC50 was 8.74.

With `CCN1C[C@H](Nc2nc(NC)c3c(-c4ccc5nc(C)n(CC(F)F)c5n4)ccn3n2)C(F)(F)C1` [Compound 365, (S)-5-(3-(2,2-Difluoroethyl)-2-methyl-3H-imidazo[4,5-b]pyridin-5-yl)-N^2-(1-ethyl-4,4-difluoropyrrolidin-3-yl)-N^4-methylpyrrolo[2,1-f][1,2,4]triazine-2,4-diamine], the pIC50 is 8.20.

As for `CN1CC[C@@H](Nc2nc(N)c3c(-c4ccc5ncn(CC(F)(F)F)c5n4)ccn3n2)C(F)(F)C1` [Compound 994, (R)—N^2-(3,3-Difluoro-1-methylpiperidin-4-yl)-5-(3-(2,2,2-trifluoroethyl)-3H-imidazo[4,5-b]pyridin-5-yl)pyrrolo[2,1-f][1,2,4]triazine-2,4-diamine], the negative logarithm of the IC50 (pIC50) was 8.92.

In the case of `CNc1nc(N[C@H]2CC[C@@](C)(O)CC2)nn2ccc(-c3ccc4ncn(CC(F)F)c4n3)c12` [Compound 1008, (1r,4r)-4-((5-(3-(2,2-Difluoroethyl)-3H-imidazo[4,5-b]pyridin-5-yl)-4-(methylamino)pyrrolo[2,1-f][1,2,4]triazin-2-yl)amino)-1-methylcyclohexan-1-ol], the pIC50 was 9.40.

`CNc1nc(N[C@@H]2CCN(C(C)=O)CC2(F)F)nn2ccc(-c3ccc4nc(C)n(CC(F)F)c4n3)c12` [Compound 1023, (R)-1-(4-((5-(3-(2,2-Difluoroethyl)-2-methyl-3H-imidazo[4,5-b]pyridin-5-yl)-4-(methylamino)pyrrolo[2,1-f][1,2,4]triazin-2-yl)amino)-3,3-difluoropiperidin-1-yl)ethan-1-one]: the pIC50 is 8.33.

Consider `CNc1nc(N[C@@H]2CCN(C3CC3)CC2(F)F)nn2ccc(-c3ccc4nc(C)n(CC(F)F)c4n3)c12` [Compound 386, (R)—N^2-(1-Cyclopropyl-3,3-difluoropiperidin-4-yl)-5-(3-(2,2-difluoroethyl)-2-methyl-3H-imidazo[4,5-b]pyridin-5-yl)-N^4-methylpyrrolo[2,1-f][1,2,4]triazine-2,4-diamine], for which the pIC50 is 8.34.

For the compound “N^4-Methyl-N^2-(1-(oxetan-3-yl)piperidin-4-yl)-5-(pyrazolo[1,5-a]pyridin-5-yl)pyrrolo[2,1-f][1,2,4]triazine-2,4-diamine [Compound 2]”, the negative logarithm of the IC50 (pIC50) is 6.57.

In the case of `CNc1nc(N[C@@H]2CCN(C)C[C@@H]2F)nn2ccc(-c3ccc4nc(C)n(CC(F)F)c4n3)c12` [Compound 205, 5-(3-(2,2-Difluoroethyl)-2-methyl-3H-imidazo[4,5-b]pyridin-5-yl)-N^2-((3S,4R)-3-fluoro-1-methylpiperidin-4-yl)-N^4-methylpyrrolo[2,1-f][1,2,4]triazine-2,4-diamine], the negative logarithm of the IC50 (pIC50) was 9.00.

As to `CNc1nc(NC2CCN(C3COC3)CC2)nn2ccc(-c3ccc4nc(C)n(CC(F)F)c4n3)c12` [Compound 203, 5-(3-(2,2-Difluoroethyl)-2-methyl-3H-imidazo[4,5-b]pyridin-5-yl)-N^4-methyl-N^2-(1-(oxetan-3-yl)piperidin-4-yl)pyrrolo[2,1-f][1,2,4]triazine-2,4-diamine], the negative-log IC50 (pIC50) is 8.70.

Regarding `CC(=O)N1CC[C@@H](Nc2nc(N)c3c(-c4ccc5nc(C)n(CC(F)F)c5n4)ccn3n2)C(F)(F)C1` [Compound 729, (R)-1-(4-((4-Amino-5-(3-(2,2-difluoroethyl)-2-methyl-3H-imidazo[4,5-b]pyridin-5-yl)pyrrolo[2,1-f][1,2,4]triazin-2-yl)amino)-3,3-difluoropiperidin-1-yl)ethan-1-one], the pIC50 is 9.40.

With `[2H]C([2H])([2H])Nc1nc(N[C@@H]2CCN(C3COC3)CC2(F)F)nn2ccc(-c3ccc4nc(C)n(CC(F)F)c4n3)c12` [Compound 388, (R)—N^2-(3,3-Difluoro-1-(oxetan-3-yl)piperidin-4-yl)-5-(3-(2,2-difluoroethyl)-2-methyl-3H-imidazo[4,5-b]pyridin-5-yl)-N^4-(methyl-d3)pyrrolo[2,1-f][1,2,4]triazine-2,4-diamine], the pIC50 is 8.33.

Consider `CC(=O)N1CC[C@@H](Nc2nc(N)c3c(-c4ccc5nnn(CC(F)F)c5n4)ccn3n2)C(F)(F)C1` [Compound 853, (R)-1-(4-((4-Amino-5-(3-(2,2-difluoroethyl)-3H-[1,2,3]triazolo[4,5-b]pyridin-5-yl)pyrrolo[2,1-f][1,2,4]triazin-2-yl)amino)-3,3-difluoropiperidin-1-yl)ethan-1-one], for which the negative logarithm of the IC50 (pIC50) was 8.82.

On to `CNc1nc(N[C@H]2CCN(C)C[C@H]2F)nn2ccc(-c3ccc4nc(C)n(CC(F)F)c4n3)c12` [Compound 204, 5-(3-(2,2-Difluoroethyl)-2-methyl-3H-imidazo[4,5-b]pyridin-5-yl)-N^2-((3R,4S)-3-fluoro-1-methylpiperidin-4-yl)-N^4-methylpyrrolo[2,1-f][1,2,4]triazine-2,4-diamine], for which the negative logarithm of the IC50 (pIC50) was 9.10.

As for `CNc1nc(N[C@H]2CCN(CCF)C[C@H]2F)nn2ccc(-c3ccc4nc(C)n(CC(F)F)c4n3)c12` [Compound 375, 5-(3-(2,2-Difluoroethyl)-2-methyl-3H-imidazo[4,5-b]pyridin-5-yl)-N^2-((3R,4S)-3-fluoro-1-(2-fluoroethyl)piperidin-4-yl)-N^4-methylpyrrolo[2,1-f][1,2,4]triazine-2,4-diamine], the pIC50 was 9.22.

On to `CCN1CC[C@@H](Nc2nc(NC)c3c(-c4ccc5nc(C)n(CC(F)F)c5n4)ccn3n2)[C@@H](F)C1` [Compound 372, 5-(3-(2,2-Difluoroethyl)-2-methyl-3H-imidazo[4,5-b]pyridin-5-yl)-N^2-((3S,4R)-1-ethyl-3-fluoropiperidin-4-yl)-N^4-methylpyrrolo[2,1-f][1,2,4]triazine-2,4-diamine], for which the negative-log IC50 (pIC50) was 8.30.

As for `CCNc1nc(N[C@@H]2CCNCC2(F)F)nn2ccc(-c3ccc4nc(C)n(CC(F)F)c4n3)c12` [Compound 482, (R)-5-(3-(2,2-Difluoroethyl)-2-methyl-3H-imidazo[4,5-b]pyridin-5-yl)-N^2-(3,3-difluoropiperidin-4-yl)-N^4-ethylpyrrolo[2,1-f][1,2,4]triazine-2,4-diamine], the negative logarithm of the IC50 (pIC50) is 8.51.

For `CCN1CC[C@H](Nc2nc(NC)c3c(-c4ccc5nc(C)n(CC(F)F)c5n4)ccn3n2)C(F)(F)C1` [Compound 384, (S)-5-(3-(2,2-Difluoroethyl)-2-methyl-3H-imidazo[4,5-b]pyridin-5-yl)-N^2-(1-ethyl-3,3-difluoropiperidin-4-yl)-N^4-methylpyrrolo[2,1-f][1,2,4]triazine-2,4-diamine], the negative logarithm of the IC50 (pIC50) is 8.70.

`CNc1nc(N[C@H]2CCN(C(C)=O)C[C@H]2F)nn2ccc(-c3ccc4ncn(CCF)c4n3)c12` [Compound 1002, 1-((3R,4S)-3-Fluoro-4-((5-(3-(2-fluoroethyl)-3H-imidazo[4,5-b]pyridin-5-yl)-4-(methylamino)pyrrolo[2,1-f][1,2,4]triazin-2-yl)amino)piperidin-1-yl)ethan-1-one]: the negative logarithm of the IC50 (pIC50) is 8.96.
